Data taken from ChEMBL document CHEMBL1201862, “PubChem BioAssay data set” (2004).
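Five compound concentrations were applied to cells in 96-well plates for 48 hours; endpoints were derived by simple linear interpolation of the resulting dose-response curve. GI50: concentration for 50% inhibition of growth.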 The source made the active and inactive calls. Cut-off read from the data, not from the text of the source: active = GI50 up to about 1.1 µM and inactive = higher.

What was measured:
Test in all cases: NCI-60 cell line screen, 48 h
DLD-1 = test system: DLD-1
XF498 = test system: XF498
SNB-78 = test system: SNB-78
DMS-114 = test system: DMS-114
DMS-273 = test system: DMS-273
M19-MEL = test system: M19-MEL
RXF 631 = test system: RXF 631
HOP-18 = test system: HOP-18
KM-20L2 = test system: KM-20L2

Measured: GI50

CCCCCCCCCCC(O)CCCCCCC(=O)O (configuration not stated)
inactive: DLD-1 19.3 µM | XF498 29.8 µM | SNB-78 > 100 µM | DMS-114 23.1 µM | DMS-273 22.4 µM | M19-MEL 35.6 µM | RXF 631 19.1 µM | HOP-18 27.9 µM

O=C(OCc1ccccc1)N1N=NC2C3CC(OCc4ccccc4)(OCc4ccccc4)C(O3)C21 (configuration not stated)
inactive: DLD-1 16.9 µM | XF498 22.7 µM | SNB-78 43.7 µM | DMS-114 8.99 µM | DMS-273 15.5 µM | M19-MEL 24.4 µM | KM-20L2 40.7 µM | RXF 631 46 µM | HOP-18 20.6 µM

CCN(CC)c1ccc(/C=C2/C[N+](C)(C)C/C(=C/c3ccc(N(CC)CC)cc3)C2=O)cc1
inactive: DLD-1 9.59 µM | XF498 2.48 µM | SNB-78 2.82 µM | DMS-114 1.41 µM | M19-MEL 1.45 µM | KM-20L2 2.59 µM | RXF 631 > 30.3 µM | HOP-18 6.61 µM

O=S1(=O)CS(=O)(=O)OCCO1
inactive: DLD-1 54.7 µM | XF498 15 µM | SNB-78 17.4 µM | DMS-114 37.5 µM | DMS-273 51.1 µM | M19-MEL 48.8 µM | KM-20L2 76.6 µM | RXF 631 47.8 µM | HOP-18 > 100 µM

CC1OC(OCC2OC(Oc3c(-c4ccc(O)cc4)oc4cc(O)cc(O)c4c3=O)C(OC3OCC(O)(CO)C3O)C(O)C2O)C(O)C(O)C1O (configuration not stated)
inactive: DLD-1 36.8 µM | SNB-78 > 100 µM | DMS-114 32 µM | DMS-273 49.2 µM | M19-MEL 21.7 µM | KM-20L2 > 100 µM | RXF 631 > 100 µM | HOP-18 > 100 µM

CCOC(=O)C1S/C(=N\c2ccccc2)N=C1C (configuration not stated)
inactive: DLD-1 49.9 µM | XF498 > 100 µM | SNB-78 83 µM | DMS-114 59 µM | M19-MEL > 100 µM | KM-20L2 55.7 µM | RXF 631 > 100 µM | HOP-18 > 100 µM

O=Cc1ccc(-c2cccs2)s1
inactive: DLD-1 > 63.1 µM | XF498 4.33 µM | SNB-78 > 100 µM | DMS-114 > 90.8 µM | DMS-273 > 100 µM | M19-MEL > 100 µM | KM-20L2 47.9 µM | RXF 631 5.08 µM | HOP-18 > 62.8 µM

C/C=C/C1=C(Cl)C(=O)[C@@H](Cl)[C@@]1(O)C(=O)OC [(+)-CRYPTOSPORIPSIN]
inactive: DLD-1 2.28 µM | XF498 2.82 µM | SNB-78 5.18 µM | DMS-273 3.54 µM | M19-MEL 2.55 µM | KM-20L2 4.68 µM | RXF 631 10.5 µM | HOP-18 4.09 µM
